# Results reported in PMC3189933, “Acylpeptide Hydrolase Inhibition as Targeted Strategy to Induce Proteasomal Down-Regulation” (PLoS ONE, 2011).
# Where a SMILES comes first, the peptide text is derived from it. Where no end group is shown, it is not given here. The star is where a group is joined. Cbz = O=C(OCc1ccccc1)*
# Legend:
# [1] = test system: polyubiquitinylated proteins in Caco-2 cells; test: Protein ubiquitinylation in Caco-2 cells (immunoblot); format: cell-based, human; details: 48 h, 200 µM SsCEI 4 or t10c12-CLA, mixture, 100 µM ebelactone, 10 µM MG132, species 66 kDa to 160 kDa
# Description: The following antibodies were used: anti-APEH antibody (sc-102311; Santa Cruz Biotechnology); anti-NF-κB/p65 antibody (Thermo Scientific); anti-p21Waf1 antibody (Exbio); pan Ab-5 anti-actin antibody (clone ACTN05, Thermo Scientific); and monoclonal antibodies against polyubiquitinylated proteins conjugated with horseradish peroxidase (FK2H, Enzo, Life Science). The ΔF508CFTR-3HA protein was detected with an anti HA monoclonal antibody (Covance).
# APEH in Caco-2 cells = test: APEH activity in Caco-2 cells; details: differentiated Caco-2 cells
# Method: Porcine liver APEH activity was measured spectrophotometrically using the chromogenic substrate acetyl-Ala-pNA (Bachem). The reaction mixture (1 mL) containing pure APEH (38 ng) or an appropriate amount of cell extract in 50 mM Tris-HCl buffer pH 7.5 (Tris Buffer), was preincubated at 37°C for 2 min. Then, 1 mM acetyl-Ala-pNA was added and the release of p-nitroanilide (ε410 = 8800 M-1 cm-1) was measured by recording the absorbance increase at 410 nm on a Cary 100 Scan (Varian) UV/Vis spectrophotometer, equipped with a thermostated cuvette compartment. APEH activity was expressed in IU. The APEHSs activity was measured using acetyl-Leu-pNA (0.1 mM) (Sigma) as substrate. The reaction mixture (1 mL) containing the appropriate amount of enzyme in 25 mM Tris-HCl buffer pH 7.5, was preincubated at 80°C for 2 min. Then, 0.1 mM acetyl-Leu-pNA was added and the release of p-nitroanilide was measured, following the standard assay procedure described above.
# Caco-2 cells (ATCC) were cultivated in DMEM supplemented with 10% FBS, 1 mM glutamine and 100 units/mL penicillin-streptomycin at 37°C in a humidified 5% CO2 atmosphere. The cells were studied between passages 12 and 22. The cells were split using trypsin-EDTA solution and plated in 6-well plates at a density of 8×10^4 cells/mL and the medium was replaced every 2–3 days. Under these conditions, the cells reached visual confluence after 7 days and the differentiated stage two weeks later. The differentiated cells were incubated for 48 h with the different substances.
# Following the treatments, the BHK and Caco-2 cells were washed three times with ice cold phosphate-buffered saline and collected immediately at 4°C in lysis buffer (1% Triton X-100, 0.1% SDS, 20 mM Tris-HCl, pH 8.0, 150 mM NaCl, 0.5% sodium deoxycholate and complete protease inhibitors [Roche]). The lysates were centrifuged at 10,000×g for 15 min at 4°C. The protein concentrations in the clear supernatants were determined (BCA protein assay reagent kit; Pierce) before their use in enzymatic assays or SDS–PAGE.
# APEHSs = test: Inhibition of S. solfataricus APEH (APEHSs), Ac-Leu-pNA substrate; format: biochemical, Sulfolobus solfataricus; details: increasing inhibitor concentrations, Ac-Leu-pNA, pre-incubated 30 min at 80°C
# Method: (§1) APEH activity was expressed in IU.
# (§2) Protease inhibitor activities of the SsCEI peptides and the CLA isomers were carried out using a fixed amount of APEH or partially purified proteasome (3–5 nM and 0.12 mg/mL, respectively), and increasing the SsCEI and CLA isomer concentrations. Mixtures were pre-incubated for 30 min at 37°C before the addition of the substrate, and the enzymatic activities were followed as described above. Protease inhibitor activities of the SsCEI peptides and the CLA isomers were determined towards APEHSs. The protease and increasing concentrations of the inhibitors were mixed and preincubated for 30 min at 80°C before the addition of the specific substrate. The residual enzymatic activity was determined using the assay procedure described above.
# (§3) All data were obtained from triplicate analyses of three different preparations. Data were presented as means ±S.D. Statistical analysis and IC50 values were calculated with the SigmaPlot 10.0 software through a non-linear curve-fitting method and using a simple binding isotherm equation. Groups were compared by Student's t test, and P<0.05 was considered as significant.
# porcine APEH [2] = target: T1, porcine APEH (Sus scrofa, UniProt P19205); test: Inhibition of porcine liver APEH, Ac-Ala-pNA substrate; format: biochemical; details: Ac-Ala-pNA, pre-incubated 30 min at 37°C
# T1 construct: mammalian APEHs purified from both porcine liver and human colon carcinoma intestinal cells (Caco-2); purchased Takara; host or cells: porcine liver
# T1 sequence (P19205 1-732): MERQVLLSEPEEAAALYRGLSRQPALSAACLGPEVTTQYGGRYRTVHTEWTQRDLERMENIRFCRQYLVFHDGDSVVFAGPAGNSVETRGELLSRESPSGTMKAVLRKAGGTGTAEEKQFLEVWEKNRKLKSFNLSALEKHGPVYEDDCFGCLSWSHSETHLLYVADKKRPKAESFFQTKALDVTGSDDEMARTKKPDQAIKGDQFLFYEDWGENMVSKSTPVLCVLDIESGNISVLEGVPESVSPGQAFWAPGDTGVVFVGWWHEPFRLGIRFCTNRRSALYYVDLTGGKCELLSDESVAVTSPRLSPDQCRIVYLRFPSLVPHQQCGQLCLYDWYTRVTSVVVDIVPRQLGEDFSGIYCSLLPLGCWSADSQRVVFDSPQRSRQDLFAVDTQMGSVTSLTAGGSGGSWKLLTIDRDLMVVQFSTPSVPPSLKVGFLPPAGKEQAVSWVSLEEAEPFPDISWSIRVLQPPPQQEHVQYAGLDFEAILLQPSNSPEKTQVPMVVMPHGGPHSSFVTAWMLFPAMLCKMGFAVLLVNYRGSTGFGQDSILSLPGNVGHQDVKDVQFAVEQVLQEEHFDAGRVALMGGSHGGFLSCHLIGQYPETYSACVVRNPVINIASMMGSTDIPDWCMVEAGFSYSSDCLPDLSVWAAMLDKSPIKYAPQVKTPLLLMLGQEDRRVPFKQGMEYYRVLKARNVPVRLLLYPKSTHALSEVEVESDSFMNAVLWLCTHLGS
# Method: as §1, §2, §3
# Caco-2 cells = test: LDH release cytotoxicity assay in Caco-2 cells; details: 48 h; for toxicity (LDH release) compared with MG132: 200 µM SsCEI 4 or t10c12-CLA, 100 µM ebelactone, MG132 10 µM
# Method: The release of LDH was used as the marker for cell toxicity [48]. The culture supernatants were sampled at the end of the incubations and centrifuged (4,000×g, 5 min, and 4°C). Aliquots of the clear supernatant (10 µL) were incubated with 190 µL reaction buffer (200 mM Tris/HCl, pH 8.0, 0.7 mM p-iodonitrotetrazolium violet, 50 mM L-lactic acid, 0.3 mM phenazine methoxysulphate, 0.4 mM NAD,) for 30 min at 37°C. Absorbance was measured at 490 nm and the results were expressed as percentages of total LDH release from control cultures treated with 1% (w/v) Triton X-100 and calculated as: [(experimental value - blank value)/(total lysis -blank value)−100].
# human APEH = target: T2, human APEH (Homo sapiens, UniProt P13798); test: Inhibition of human APEH purified from Caco-2 cells; format: biochemical; details: human APEH from Caco-2 cells, Ac-Ala-pNA; data not shown
# T2 construct: Partial purification of human APEH and proteasome was carried out from protein extracts of Caco-2 cell; endogenous in cells; host or cells: Caco-2
# T2 sequence (P13798 1-732): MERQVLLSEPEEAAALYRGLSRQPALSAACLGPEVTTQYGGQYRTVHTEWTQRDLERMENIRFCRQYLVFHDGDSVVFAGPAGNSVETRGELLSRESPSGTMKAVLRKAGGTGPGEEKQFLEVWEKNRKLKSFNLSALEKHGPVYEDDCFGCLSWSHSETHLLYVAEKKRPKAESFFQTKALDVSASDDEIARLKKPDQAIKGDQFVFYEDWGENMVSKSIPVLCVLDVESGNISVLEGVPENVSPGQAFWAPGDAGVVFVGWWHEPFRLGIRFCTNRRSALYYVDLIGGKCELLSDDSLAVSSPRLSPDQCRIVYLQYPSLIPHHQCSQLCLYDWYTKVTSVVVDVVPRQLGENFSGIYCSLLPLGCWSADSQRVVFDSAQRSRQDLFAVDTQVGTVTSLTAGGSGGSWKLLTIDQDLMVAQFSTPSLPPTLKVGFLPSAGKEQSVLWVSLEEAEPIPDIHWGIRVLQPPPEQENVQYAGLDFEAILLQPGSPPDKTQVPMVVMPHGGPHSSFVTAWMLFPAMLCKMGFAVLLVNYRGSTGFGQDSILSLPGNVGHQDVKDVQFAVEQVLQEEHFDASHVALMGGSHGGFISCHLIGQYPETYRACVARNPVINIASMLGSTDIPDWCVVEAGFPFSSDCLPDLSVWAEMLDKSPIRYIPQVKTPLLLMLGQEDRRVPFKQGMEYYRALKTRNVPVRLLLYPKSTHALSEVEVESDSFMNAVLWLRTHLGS
# Method: APEH from Sulfolobus solfataricus was purified as previously reported. Partial purification of human APEH and proteasome was carried out from protein extracts of Caco-2 cell. Briefly, protein extracts (500 µg) were fractionated by gel filtration chromatography on a Superdex 200 PC 3.2/30 column connected to a SMART System (Pharmacia) equilibrated in buffer 50 mM Tris-HCl, pH 7.5, 100 mM NaCl, at 0.1 mL/min. The eluted fractions were assayed using the specific substrates for APEH and the proteasome. The active fractions were collected and used for further analysis.
# as §1, §2
# porcine APEH [3] = target: T1, porcine APEH; test: Time-dependent inhibition of APEH; format: biochemical; details: pre-incubation at least 20 min at 37°C, then diluted 1:5 into assay mixture with substrate
# Method: The time-dependent inhibition of SsCEI 4 and t10c12-CLA towards APEH was assessed. Mixtures containing appropriate amounts of each inhibitor and of APEH were pre-incubated for 20 min at 37°C; they were then diluted (1∶5) into the standard assay mixture, which contained the substrate only. The enzymatic activity was followed as described above. Control samples were prepared by pre-incubating the same amounts of APEH without the inhibitors and then diluted in the standard assay mixture.
# porcine APEH [4] = target: T1, porcine APEH; test: APEH inhibition in a reaction mixture containing the entire set of proteases; format: biochemical; details: mixture with trypsin, α-chymotrypsin, elastase, carboxypeptidase Y, subtilisin, thrombin; data not shown
# porcine APEH [5] = target: T1, porcine APEH; test: RP-HPLC analysis of SsCEI 4 incubated with the target enzyme; format: in vitro ADME; details: 50 mM Tris pH 7.5, 37°C, up to 2 h, RP-HPLC C18, UV, printed 4 µM SsCEI 4 and 100 µM APEH
# Method: The experiments were conducted at 37°C in 50 mM Tris buffer, pH 7.5. Solutions of SsCEI 4 and porcine APEH were incubated for up to 2 h at optimal concentrations (4 µM SsCEI 4 and 100 µM APEH) to guarantee a high degree of enzymatic inhibition. At specific time intervals, 195 µL aliquots were taken, and the reaction was stopped by addition of 5 µL TFA. The samples were then analysed directly by reverse-phase HPLC (Dionex BioLC) on a μBondapak C18 column (3.9×300 mm, Waters), eluted with a linear gradient (0–60% acetonitrile in 0.1% TFA) at a flow rate of 1 ml/min. Control peptide samples were incubated in the absence of the purified enzymes and run in parallel.
# [6] = Enzymatic stability in 10% FBS; format: in vitro ADME; details: method as ref 19, data not shown
# BHK cells = test: Cytotoxicity in BHK cells; format: cell-based, Baby Hamster; details: 100 µM, 24 h or 48 h; data not shown
# Method: The cells were plated in 12-well plates, to a confluence of 60% for the 24-h incubations, and 40% for 48-h exposure to PIs. These treatments were initiated 24-h after the plating of the cells. Phase-contrast images of the cells were taken just before the lysis of the cells for protein analysis, using a Lica DM6000 inverted microscope.
# bovine α-chymotrypsin = bovine α-chymotrypsin (Bos taurus, UniProt P00766); test: Serine protease selectivity panel: α-chymotrypsin; format: biochemical; details: increasing peptide concentrations, hyperbolic fit (Figure S3); read-out: IC50 towards bovine α-chymotrypsin
# Thermal CD spectroscopy = format: physicochemical; details: CD 37°C to 77°C in 10°C steps, 5 mM Tris–HCl pH 7.5
# Method: CD spectra were obtained on a Jasco J-715 spectropolarimeter with 400 µL of 8.0×10^-7 M protein in 5 mM Tris–HCl pH 7.5. Hellman quartz cells of 0.1-cm-path length were used in the far UV (190–250 nm). The temperature of the sample cell was regulated by a PTC-348 WI thermostat and thermal CD was performed from 250 to 195 nm by raising the cell temperature from 37°C to 77°C. The thermal CD spectra were signal-averaged by combining three scans and the baseline was corrected by subtracting a buffer spectrum. The samples were then cooled back to 37°C to monitor the final folding of the peptides.
# [7] = Gel filtration (size-exclusion) analysis of oligomerization; format: physicochemical; details: 100 µM peptide
# Method: Gel filtration chromatography was performed on a BioSep SEC-S2000 column equilibrated with 50 mM phosphate buffer pH 6.8, at a flow rate of 1.0 mL/min. A standard curve was built using a set of synthetic peptides with molecular weights between 1.500 amu and 2.500 amu. For this purpose, peptide aliquots were injected onto the column and a plot of KD versus log10 molecular weights (MW) was obtained, where KD = (Ve-Vo)/(VT-Vo), Ve is the elution volume of the sample, and VT and Vo are the total and void volumes of the column, respectively.
# [8] = Stability in aqueous solution; format: physicochemical; details: at the concentrations required for CD analyses
compound,measurement,setting,value
CC(C)C[C@@H](C=O)NC(=O)[C@H](CC(C)C)NC(=O)[C@H](CC(C)C)NC(=O)OCc1ccccc1 [MG132] (Cbz-Leu-Leu-Leu-aldehyde),polyubiquitin conjugates in cell extract,[1],presence of high-molecular-mass immunoreactive species
same,effect on APEH activity in Caco-2 cells,"APEH in Caco-2 cells; MG132 10 µM, 48 h",no detectable effects
"CCCCCC/C=C/C=C\CCCCCCCC(=O)O [c9t11-CLA, cis9-trans11 CLA]",effect on APEHSs activity,APEHSs,no significant modulatory effect
same,effect on porcine APEH activity,porcine APEH [2],ineffective
CC[C@@H](C)[C@@H](O)[C@H](C)C(=O)[C@H](C)/C=C(\C)C[C@H](C)[C@@H]1OC(=O)[C@H]1CC [ebelactone],polyubiquitin conjugates in cell extract,[1],presence of high-molecular-mass immunoreactive species
same,toxicity (LDH release) compared with MG132,Caco-2 cells,significantly lower than that observed in culture incubated with MG132
TILAEIKNINAD-NH2 [SsCEI 4],IC50 towards human APEH relative to porcine APEH,human APEH,Comparable
same,inhibition of APEH after pre-incubation with the enzyme,porcine APEH [3],100%
same,inhibition efficiency and Ki towards APEH in presence of the entire protease set,porcine APEH [4],comparable to those measured in the presence of the APEH alone
same,stability of peptide incubated with APEH (degradation / adducts),porcine APEH [5],neither peptide degradation nor covalent binding with APEH occurred
same,enzymatic stability in 10% FBS,[6],completely stable for at least one week
same,cytotoxic effects in BHK cells,BHK cells,without any cytotoxic effects
same,decrease of APEH activity in Caco-2 cells,"APEH in Caco-2 cells; 200 µM, 48 h (maximum effect)",70%
same,toxicity (LDH release) compared with MG132,Caco-2 cells,significantly lower than that observed in culture incubated with MG132
same,cytotoxic effect (LDH activity levels),Caco-2 cells; up to highest concentration 200 µM,not associated with any cytotoxic effect
TILLEIKNINAD-NH2 [SsCEI 2],IC50 towards human APEH relative to porcine APEH,human APEH,Comparable
same,IC50,bovine α-chymotrypsin,21.9 ± 6.4 µM
same,structural stability with temperature (CD),Thermal CD spectroscopy,considerable structural stability
YAIDTILA EIKNINAD [SsCEI 3],effect on APEHSs activity,APEHSs,no detectable decrease
same,Measured mass value (apparent MW by gel filtration),"[7]; BioSep SEC-S2000, 50 mM phosphate pH 6.8, Da±SD, three independent determinations",2012±150 Da
same,oligomerization state,[7]; size-exclusion chromatography,essentially monomers
same,structural stability with temperature (CD),Thermal CD spectroscopy,considerable structural stability
YAIDTILLEIKNINAD-NH2 [SsCEI 1],stability in aqueous solution,[8],poor stability in aqueous solution
